# Reference: patent publication US11371013B2, “Culture medium composition and method of culturing cell or tissue using thereof” (Nissan Chemical Industries, Ltd., priority 2012, dated 2022)
# Legend:
# A431 cells = assay: Effect of Gefitinib, Elrotinib on proliferation of A431 cells stimulated with human HB-EGF; format: cell-based; conditions: A431 cells stimulated with human HB-EGF, 0.015% (w/v) deacylated gellan gum medium, low adhesion plate
# Method: Each plate was cultured by being stood still in a CO2 incubator (37° C., 5% CO2). […] To the culture medium on days 4, 6 and 8 was added an ATP reagent (150 μL) (CellTiter-Glo (registered trade mark) Luminescent Cell Viability Assay, manufactured by Promega) to give a suspension, which was stood for about 10 min at room temperature, and the luminescence intensity (RLU value) was measured by FlexStation3 (manufactured by Molecular Devices), and the number of viable cells was measured by subtracting the luminescence value of the medium alone.
# A549 cells = assay: Effect of Gefitinib on cell proliferation of A549 cell stimulated with human HB-EGF; format: cell-based; conditions: DAG 0.015%, day 6
# Method: (§1) This aqueous solution was sterilized at 121° C. for 20 min in an autoclave.
# Each plate was cultured by being stood still in a CO2 incubator (37° C., 5% CO2). […] To the culture medium on day 6 was added an ATP reagent (150 μL) (CellTiter-Glo (registered trade mark) Luminescent Cell Viability Assay, manufactured by Promega) to give a suspension, which was stood for about 10 min at room temperature, and the luminescence intensity (RLU value) was measured by FlexStation3 (manufactured by Molecular Devices), and the number of viable cells was measured by subtracting the luminescence value of the medium alone.
# HeLa cells [1] = assay: Cell proliferation test using various anticancer drugs; format: cell-based, human; conditions: DAG 0.030% medium; for cell density: HeLa cells 5 days later
# Method: This aqueous solution was sterilized at 121° C. for 20 min in an autoclave. […] The anticancer drug used was Adriamycin (manufactured by WAKO), Paclitaxel (manufactured by WAKO) or Mitomycin C (manufactured by WAKO).
# Successively, this plate was cultured by being stood still in a CO2 incubator (37° C., 5% CO2) for 7 days. After culturing for 3, 5, 7 days, to the culture medium was added a WST-8 solution (manufactured by DOJINDO Laboratories, 20 μL), and the mixture was incubated at 37° C. for 100 min. The absorbance at 450 nm was measured by an absorbance spectrometer (manufactured by Molecular Devices, SPECTRA MAX 190), and the number of viable cells was measured by subtracting the absorbance of the medium alone. The culture medium containing the cells after 5 days of culture was stirred with a pipette and the obtained stirred solution (20 μL) was mixed with Trypan Blue stain 0.4% (manufactured by Invitrogen, 20 μL) and the cell density was measured under a microscope.
# HeLa cells [2] = assay: Comparison with single layer culture method in cell proliferation test using anticancer drug; format: cell-based, human; conditions: day 4
# Method: as §1
# Each plate was cultured by being stood still in a CO2 incubator (37° C., 5% CO2). […] The anticancer drug used was Adriamycin (manufactured by WAKO), Paclitaxel (manufactured by WAKO) or Mitomycin C (manufactured by WAKO). To the culture medium on day 4 was added an ATP reagent (150 μL) (CellTiter-Glo (registered trade mark) Luminescent Cell Viability Assay, manufactured by Promega) to give a suspension, which was stood for about 10 min at room temperature, and the luminescence intensity (RLU value) was measured by FlexStation3 (manufactured by Molecular Devices), and the number of viable cells was measured by subtracting the luminescence value of the medium alone. For WST-8 measurement, a WST-8 solution (manufactured by DOJINDO Laboratories, 15 μL) was added, the mixture was incubated at 37° C. for 100 min, the absorbance at 450 nm was measured by an absorbance spectrometer (manufactured by Molecular Devices, SPECTRA MAX 190), and the number of viable cells was measured by subtracting the absorbance of the medium alone.
# [3] = 0.005 μM, deacylated gellan gum addition group (0.015%)
# [4] = 0.005 μM, single layer culture group
# [5] = 0.05 μM, deacylated gellan gum addition group (0.015%)
# [6] = 0.05 μM, single layer culture group
# [7] = 0.5 μM, deacylated gellan gum addition group (0.015%)
# [8] = 0.5 μM, single layer culture group
structure (smiles),measurement,setting,value
C#Cc1cccc(Nc2ncnc3cc(OCCOC)c(OCCOC)cc23)c1 [Elrotinib],"% Control value of the RLU value (ATP measurement, luminescence intensity)","A431 cells; drug 0.1 μM, day 4",88%
same,"% Control value of the RLU value (ATP measurement, luminescence intensity)","A431 cells; drug 0.1 μM, day 8",56%
same,"% Control value of the RLU value (ATP measurement, luminescence intensity)","A431 cells; drug 0.3 μM, day 4",89%
same,"% Control value of the RLU value (ATP measurement, luminescence intensity)","A431 cells; drug 0.3 μM, day 8",27%
same,"% Control value of the RLU value (ATP measurement, luminescence intensity)","A431 cells; drug 1 μM, day 4",21%
same,"% Control value of the RLU value (ATP measurement, luminescence intensity)","A431 cells; drug 1 μM, day 8",4%
same,"% Control value of the RLU value (ATP measurement, luminescence intensity)","A431 cells; drug 3 μM, day 4",4%
same,"% Control value of the RLU value (ATP measurement, luminescence intensity)","A431 cells; drug 3 μM, day 8",0%
COc1cc2ncnc(Nc3ccc(F)c(Cl)c3)c2cc1OCCCN1CCOCC1 [Gefitinib],% Control of RLU value (ATP),"A549 cells; 0.1 μM, HB-EGF 100 ng/ml",91 % Control
same,% Control of RLU value (ATP),"A549 cells; 0.1 μM, HB-EGF no addition",89 % Control
same,% Control of RLU value (ATP),"A549 cells; 0.3 μM, HB-EGF 100 ng/ml",74 % Control
same,% Control of RLU value (ATP),"A549 cells; 0.3 μM, HB-EGF no addition",84 % Control
same,% Control of RLU value (ATP),"A549 cells; 1 μM, HB-EGF 100 ng/ml",59 % Control
same,% Control of RLU value (ATP),"A549 cells; 1 μM, HB-EGF no addition",77 % Control
same,% Control of RLU value (ATP),"A549 cells; 3 μM, HB-EGF 100 ng/ml",53 % Control
same,% Control of RLU value (ATP),"A549 cells; 3 μM, HB-EGF no addition",69 % Control
CO[C@@]12[C@H](COC(N)=O)C3=C(C(=O)C(C)=C(N)C3=O)N1C[C@@H]1N[C@@H]12 [Mitomycin C],cell density,HeLa cells [1]; 0.01 μM,1.0 10^4 cells/mL
same,"cell number (absorbance at 450 nm, WST-8)","HeLa cells [1]; 0.01 μM, culture day 3",0.089
same,"cell number (absorbance at 450 nm, WST-8)","HeLa cells [1]; 0.01 μM, culture day 5",0.016
same,"cell number (absorbance at 450 nm, WST-8)","HeLa cells [1]; 0.01 μM, culture day 7",<0
same,cell density,HeLa cells [1]; 0.1 μM,0.4 10^4 cells/mL
same,"cell number (absorbance at 450 nm, WST-8)","HeLa cells [1]; 0.1 μM, culture day 3",0.032
same,"cell number (absorbance at 450 nm, WST-8)","HeLa cells [1]; 0.1 μM, culture day 5",<0
same,"cell number (absorbance at 450 nm, WST-8)","HeLa cells [1]; 0.1 μM, culture day 7",<0
same,cell density,HeLa cells [1]; 1 μM,0.1 10^4 cells/mL
same,"cell number (absorbance at 450 nm, WST-8)","HeLa cells [1]; 1 μM, culture day 3",<0
same,"cell number (absorbance at 450 nm, WST-8)","HeLa cells [1]; 1 μM, culture day 5",<0
same,"cell number (absorbance at 450 nm, WST-8)","HeLa cells [1]; 1 μM, culture day 7",<0
same,% Control of RLU value (ATP),HeLa cells [2]; [3],83 % Control
same,% Control of absorbance at 450 nm (WST-8),HeLa cells [2]; [3],94 % Control
same,% Control of RLU value (ATP),HeLa cells [2]; [4],99 % Control
same,% Control of absorbance at 450 nm (WST-8),HeLa cells [2]; [4],101 % Control
same,% Control of RLU value (ATP),HeLa cells [2]; [5],48 % Control
same,% Control of absorbance at 450 nm (WST-8),HeLa cells [2]; [5],37 % Control
same,% Control of RLU value (ATP),HeLa cells [2]; [6],89 % Control
same,% Control of absorbance at 450 nm (WST-8),HeLa cells [2]; [6],83 % Control
same,% Control of RLU value (ATP),HeLa cells [2]; [7],29 % Control
same,% Control of absorbance at 450 nm (WST-8),HeLa cells [2]; [7],12 % Control
same,% Control of RLU value (ATP),HeLa cells [2]; [8],86 % Control
same,% Control of absorbance at 450 nm (WST-8),HeLa cells [2]; [8],71 % Control
